Results reported in patent US9464120B2, “Compositions for treatment of celiac disease” (ImmusanT, Inc., priority 2008, dated 2016).
Blank lines part the entries; values can stand above or below the compound they belong to. Square brackets hold non-standard residues; d marks the D form. Peptide text beside a SMILES is read from it. pGlu = O=C1CC[C@@H](C(=O)O)N1

Tests used:
[1] = tested on: gluten peptide-specific T cells in PBMC from HLA-DQ2+ celiac disease donors; experiment: IFNγ ELISpot of PBMC collected on day 6 after oral gluten challenge; format: cell-based, human; conditions: for donors with IFNγ ELISpot response: 9 HLA DQ2 celiac disease donors, PBMC day 6 after wheat gluten challenge, 17mer and 33mer at 5 μM; for requirement for deamidation for T cell stimulation / dominance according to the grain consumed: second round libraries; for relative T-cell stimulatory activity: PBMC after wheat challenge, tTG pre-treated or glutamate substituted; for activity relative to α-gliadin p57-73 QE65: pre-treated with tTG or with glutamate at position 9, 25 μg/ml, mean±SEM, n=5 donors; for dominance according to the grain consumed: wheat, barley or rye gluten challenge
[2] = Pharmacokinetics after bolus intradermal injection in an adult rat; format: in vivo; conditions: rat, in vivo, 0.9 mg; for half-life: T1/2 half life
Procedure: To improve their chemical stability and increase resistance to exopeptidases, peptides were synthesised as acetate salts of “capped” N-pyroglutamate, C-amide: NPL001 (SEQ ID NO:228), NPL002 (SEQ ID NO:229) and NPL003 (SEQ ID NO:230) 15mers or 16mers with glutamate at sites predicted to be deamidated by tTG. Indeed, capping extended the half-lives of peptides from 10-12 minutes for free peptides: NPL033, NPL038, and NPL034 (SEQ ID NOs:13, 320 and 321) after bolus intradermal injection of 0.9 mg in 0.1 ml in an adult rat to 26-28 minutes with N-pyroglutamate and C-amidation (SEQ ID NOs:228, 229 and 230) or 19-24 minutes with N-acetylation and C-amidation (SEQ ID NOs:231, 232, and 233), (see Table 4).

[3] = tested on: gluten peptide-specific T cells in PBMC from HLA-DQ2+ celiac disease donors; conditions: day-6 PBMC, cited from earlier work

Compound: 15mer encompassing deamidated DQ2-γ-IV: deamidated 15mer encompassing the epitope DQ2-γ-IV SQPEQEFPQ reported for intestinal T cell clones [reference compound]
donors with IFNγ ELISpot response [1]: One

AUC area under the curve (bioavailability) [2]: AUC 81514
T1/2 half life [2]: T1/2 27.18 minutes
half-life [2]: 26 to 28 min
Compound: NC(=O)CC[C@H](NC(=O)[C@H](Cc1c[nH]c2ccccc12)NC(=O)[C@@H]1CCCN1C(=O)[C@H](Cc1ccccc1)NC(=O)[C@@H]1CCCN1C(=O)[C@H](CCC(N)=O)NC(=O)[C@H](CCC(=O)O)NC(=O)[C@@H]1CCCN1C(=O)[C@H](CCC(N)=O)NC(=O)[C@@H]1CCCN1C(=O)[C@H](Cc1ccccc1)NC(=O)[C@@H]1CCCN1C(=O)[C@H](CCC(N)=O)NC(=O)[C@@H]1CCC(=O)N1)C(=O)N1CCC[C@H]1C(N)=O [NPL002, pyroEQPFPQPEQPFPWQP-amide] ([pGlu]QPFPQPEQPFPWQP-NH2)
bioactivity after lysine-substitution of the central PQPEQPF sequence ([1]; 32 μg/ml, after wheat (n=7), barley (n=9) or rye challenge (n=10)): abolished the bioactivity
effect of anti-HLA-DQ / -DR preincubation on IFNγ ELISpot response ([1]; PBMC from HLA DQA1*05 DQB1*02 homozygotes and heterozygotes, data not shown): anti-HLA-DQ but not -DR abolished

half-life [2]: 26 to 28 min
Compound: CC[C@H](C)[C@H](NC(=O)[C@@H]1CCCN1C(=O)[C@H](CCC(N)=O)NC(=O)[C@H](CCC(=O)O)NC(=O)[C@@H]1CCCN1C(=O)[C@@H]1CCC(=O)N1)C(=O)N1CCC[C@H]1C(=O)N[C@@H](CCC(=O)O)C(=O)N[C@@H](CCC(N)=O)C(=O)N1CCC[C@H]1C(=O)N[C@@H](CCC(N)=O)C(=O)N1CCC[C@H]1C(=O)N[C@@H](Cc1ccc(O)cc1)C(=O)N1CCC[C@H]1C(=O)N[C@@H](CCC(N)=O)C(=O)N[C@@H](CCC(N)=O)C(N)=O [NPL003, pyroEPEQPIPEQPQPYPQQ-amide] ([pGlu]PEQPIPEQPQPYPQQ-NH2)

AUC area under the curve (bioavailability) [2]: AUC 43474
T1/2 half life [2]: T1/2 19.4 minutes
half-life [2]: 19 to 24 min
Compound: CC(=O)N[C@@H](CCC(N)=O)C(=O)N[C@@H](CC(C)C)C(=O)N[C@@H](CCC(N)=O)C(=O)N1CCC[C@H]1C(=O)N[C@@H](Cc1ccccc1)C(=O)N1CCC[C@H]1C(=O)N[C@@H](CCC(N)=O)C(=O)N1CCC[C@H]1C(=O)N[C@@H](CCC(=O)O)C(=O)N[C@@H](CC(C)C)C(=O)N1CCC[C@H]1C(=O)N[C@@H](Cc1ccc(O)cc1)C(=O)N1CCC[C@H]1C(=O)N[C@@H](CCC(N)=O)C(=O)N1CCC[C@H]1C(=O)N[C@@H](CCC(N)=O)C(N)=O [NPL030, Ac-QLQPFPQPELPYPQPQ-amide] (Ac-QLQPFPQPELPYPQPQ-NH2)

AUC area under the curve (bioavailability) [2]: AUC 80263
T1/2 half life [2]: T1/2 22.9 minutes
half-life [2]: 19 to 24 min
Compound: CC(=O)N[C@@H](CCC(N)=O)C(=O)N[C@@H](CCC(N)=O)C(=O)N1CCC[C@H]1C(=O)N[C@@H](Cc1ccccc1)C(=O)N1CCC[C@H]1C(=O)N[C@@H](CCC(N)=O)C(=O)N1CCC[C@H]1C(=O)N[C@@H](CCC(=O)O)C(=O)N[C@@H](CCC(N)=O)C(=O)N1CCC[C@H]1C(=O)N[C@@H](Cc1ccccc1)C(=O)N1CCC[C@H]1C(=O)N[C@@H](Cc1c[nH]c2ccccc12)C(=O)N[C@@H](CCC(N)=O)C(=O)N1CCC[C@H]1C(N)=O [NPL031, Ac-QQPFPQPEQPFPWQP-amide] (Ac-QQPFPQPEQPFPWQP-NH2)

AUC area under the curve (bioavailability) [2]: AUC 8206
T1/2 half life [2]: T1/2 12.5 minutes
half-life [2]: 19 to 24 min
Compound: CC[C@H](C)[C@H](NC(=O)[C@@H]1CCCN1C(=O)[C@H](CCC(N)=O)NC(=O)[C@H](CCC(=O)O)NC(=O)[C@@H]1CCCN1C(=O)[C@H](Cc1ccccc1)NC(C)=O)C(=O)N1CCC[C@H]1C(=O)N[C@@H](CCC(=O)O)C(=O)N[C@@H](CCC(N)=O)C(=O)N1CCC[C@H]1C(=O)N[C@@H](CCC(N)=O)C(=O)N1CCC[C@H]1C(=O)N[C@@H](Cc1ccc(O)cc1)C(=O)N1CCC[C@H]1C(=O)N[C@@H](CCC(N)=O)C(=O)N[C@@H](CCC(N)=O)C(N)=O [NPL032, Ac-FPEQPIPEQPQPYPQQ-amide] (Ac-FPEQPIPEQPQPYPQQ-NH2)

AUC area under the curve (bioavailability) [2]: AUC 2618
half-life [2]: 10 to 12 min
Compound: CC(C)C[C@H](NC(=O)[C@H](CCC(=O)O)NC(=O)[C@@H]1CCCN1C(=O)[C@H](CCC(N)=O)NC(=O)[C@@H]1CCCN1C(=O)[C@H](Cc1ccccc1)NC(=O)[C@@H]1CCCN1C(=O)[C@H](CCC(N)=O)NC(=O)[C@@H](N)CC(C)C)C(=O)N1CCC[C@H]1C(=O)N[C@@H](Cc1ccc(O)cc1)C(=O)N1CCC[C@H]1C(=O)N[C@@H](CCC(N)=O)C(=O)N1CCC[C@H]1C(=O)N[C@@H](CCC(N)=O)C(=O)O [NPL033, LQPFPQPELPYPQPQ] (H-LQPFPQPELPYPQPQ-OH)

half-life [2]: 10 to 12 min
Compound: CC[C@H](C)[C@H](NC(=O)[C@@H]1CCCN1C(=O)[C@H](CCC(N)=O)NC(=O)[C@H](CCC(=O)O)NC(=O)[C@@H]1CCCN1C(=O)[C@@H](N)Cc1ccccc1)C(=O)N1CCC[C@H]1C(=O)N[C@@H](CCC(=O)O)C(=O)N[C@@H](CCC(N)=O)C(=O)N1CCC[C@H]1C(=O)N[C@@H](CCC(N)=O)C(=O)N1CCC[C@H]1C(=O)N[C@@H](Cc1ccc(O)cc1)C(=O)N1CCC[C@H]1C(=O)N[C@@H](CCC(N)=O)C(=O)N[C@@H](CCC(N)=O)C(=O)O [NPL034, FPEQPIPEQPQPYPQQ] (H-FPEQPIPEQPQPYPQQ-OH)

AUC area under the curve (bioavailability) [2]: AUC 22393
T1/2 half life [2]: T1/2 13.2 minutes
half-life [2]: 10 to 12 min
Compound: NC(=O)CC[C@H](NC(=O)[C@@H]1CCCN1)C(=O)N[C@@H](CCC(N)=O)C(=O)N1CCC[C@H]1C(=O)N[C@@H](Cc1ccccc1)C(=O)N1CCC[C@H]1C(=O)N[C@@H](CCC(N)=O)C(=O)N1CCC[C@H]1C(=O)N[C@@H](CCC(=O)O)C(=O)N[C@@H](CCC(N)=O)C(=O)N1CCC[C@H]1C(=O)N[C@@H](Cc1ccccc1)C(=O)N1CCC[C@H]1C(=O)N[C@@H](Cc1c[nH]c2ccccc12)C(=O)N[C@@H](CCC(N)=O)C(=O)N1CCC[C@H]1C(=O)O [NPL038, PQQPFPQPEQPFPWQP] (H-PQQPFPQPEQPFPWQP-OH)

Compound: GQGQSGYYPTSPQQSG (W29)
requirement for deamidation for T cell stimulation [1]: Exceptions to the requirement for deamidation

Compound: LQLQPFPQPELPYPQPELPYPQPELPYPQPQPF (deamidated alpha2-gliadin 56-88) [33mer, reference compound]
donors with IFNγ ELISpot response [1]: 7 donors

Compound: PGQGQSGYYPTSPQQS (W24)
requirement for deamidation for T cell stimulation [1]: Exceptions to the requirement for deamidation

Compound: PQPQPFLPELPYPQPQS (gluten derived peptide) [SEQ ID NO:26]
relative T-cell stimulatory activity [1]: almost as active as 17mers encompassing DQ2-α-II

Compound: PQPQPFLPQLPYPQPQS (gluten derived peptide) [W09]
relative T-cell stimulatory activity [1]: almost as active as 17mers encompassing DQ2-α-II

Compound: PQQPFPQPELPFPQQSE (deamidated AAG17702 (141-157)) [SEQ ID NO:29]
activity relative to α-gliadin p57-73 QE65 [1]: 32±6%

Compound: PQQPFPQPQLPFPQQSE (AAG17702 (141-157))
activity relative to α-gliadin p57-73 QE65 [1]: 32±6%

Compound: PQQPIPEQPQPYPQQP (B08-E7)
dominance according to the grain consumed [1]: only after barley gluten challenge

Compound: QGQPGYYPTSPQQIGQ (W22)
requirement for deamidation for T cell stimulation [1]: Exceptions to the requirement for deamidation

Compound: QGQQGYYPISPQQSGQ (W21)
requirement for deamidation for T cell stimulation [1]: Exceptions to the requirement for deamidation

Compound: QLQPFPQPELPYPQPQL (variant of alpha-gliadin p57-73 QE65) [SEQ ID NO:46]
donors with IFNγ ELISpot response [1]: 7 donors

Compound: QLQPFPQPELPYPQPQP (gluten derived peptide) [SEQ ID NO:225]
dominance according to the grain consumed [1]: dominant only after wheat gluten challenge

Compound: QLQPFPQPELPYPQPQS (alpha-gliadin p57-73 QE65) [α-gliadin p57-73 QE65]
IFNγ ELISpot response relative to tTG-treated gliadin in 3/17 donors ([3]; 3/17 donors): less than 5%
Median IFNγ ELISpot response as percentage of that to tTG-treated gliadin (500 μg/ml) ([3]; n=17, range 0-155%): 51%

Compound: QPEQPFPQPEQPFPWQP (W03-E7)
relative T-cell stimulatory activity [1]: equivalent in bioactivity
dominance according to the grain consumed [1]: universal dominant T cell stimulatory peptide in gluten

Compound: QPFPQQPEQIIPQQ (gluten derived peptide) [SEQ ID NO:323]
dominance according to the grain consumed [1]: only after rye gluten challenge

Compound: QPQQPFPQPEQPFPWQP (Q3 E10 variant) [SEQ ID NO:54]
relative T-cell stimulatory activity [1]: optimal immunogenicity

Compound: QYEVIRSLVRTLPNM (QYEVIRSLVLRTLPNM; W36)
requirement for deamidation for T cell stimulation [1]: Exceptions to the requirement for deamidation
